Assay results taken from patent publication US4429127A, “Quinoline carboxylic acid derivative” (Kyorin Pharmaceutical Co., Ltd., priority 1981, dated 1984).
Values after ≈ are worked out from the molar mass of the structure shown. Where two headings read alike, the source gives them in different places.

What was measured:
[1] = Tissue levels after a single oral administration in rats (microbiological assay); type: in vivo; settings: rat; for concentration at 0.5 h / concentration at 1 h / concentration at 2 h / concentration at 4 h / concentration at 6 h: 50 mg/kg oral
Method: Tissue levels of the compound (I) after a single oral administration of 50 mg/kg in mice and rats
Tissue levels of the compound (I) were determined by micro-biological assay which employed the thin layer cup method with Bacillus subtilis ATCC6633 as the test organism. Serum and tissue levels of the compound (I) were calculated with the standard curve prepared in normal serum of the test animal species and M/15 phosphate buffer (pH 7.5), respectively.

[2] = tested on: Acinetobacter enitratus IID876; test: In vitro antibacterial activity (MIC, agar dilution); type: cell-based; settings: inoculum 10^8 cells/ml
Method: (§1) The minimum inhibitory concentration (MIC) of the compound (I) was determined by an agar dilution technique (the standard method of Japan Society of Chemotherapy) against standard strains of gram-positive and gram-negative bacteria.
(§2) Inoculum size: 10^8 cells/ml

Proteus vulgaris IFO3167 = test: as above; type: cell-based; settings: Proteus vulgaris IFO3167; inoculum 10^8 cells/ml; read-out: MIC
Method: as §1, §2

P. mirabilis IID994 = test: as above; type: cell-based; settings: Proteus mirabilis, inoculum 10^8 cells/ml
Method: as §1, §2

[3] = tested on: Staphylococcus aureus 209P; test: as above; type: cell-based; settings: Staphylococcus aureus 209P; inoculum 10^8 cells/ml; read-out: MIC
Method: as §1, §2

S. pneumoniae IID552 = test: as above; type: cell-based; settings: Streptococcus pneumoniae; S. pneumoniae IID552; inoculum 10^8 cells/ml; read-out: MIC
Method: as §1, §2

[4] = tested on: Serratia marcescens IID618; test: as above; type: cell-based; settings: inoculum 10^8 cells/ml
Method: as §1, §2

[5] = tested on: Pseudomonas aeruginosa V-1; test: as above; type: cell-based; settings: V1; Pseudomonas aeruginosa V-1; inoculum 10^8 cells/ml; read-out: MIC
Method: as §1, §2

[6] = tested on: Alcaligenes faecalis 0104002; test: as above; type: cell-based; settings: inoculum 10^8 cells/ml
Method: as §1, §2

S. pyogenes S-8 = test: as above; type: cell-based; settings: Streptococcus pyogenes, S8; S. pyogenes S-8; inoculum 10^8 cells/ml; read-out: MIC
Method: as §1, §2

[7] = kidney, read-out: Kidney concentration
[8] = liver, read-out: Liver concentration
[9] = lung, read-out: Lung concentration
[10] = serum, read-out: Serum concentration

CCn1cc(C(=O)O)c(=O)c2cc(F)c(N3CCN(Cc4ccc(N)cc4)CC3)c(F)c21 [compound (I), 7-[4-(p-aminobenzyl)-1-piperazinyl]-1-ethyl-6,8-difluoro-1,4-dihydro-4-oxoquinoline-3-carboxylic acid]
concentration at 0.5 h [1, 7]: 6600 ng/mL | concentration at 1 h [1, 7]: 6800 ng/mL | concentration at 2 h [1, 7]: 2700 ng/mL | concentration at 4 h [1, 7]: 1000 ng/mL | concentration at 6 h [1, 7]: 300 ng/mL | concentration at 0.5 h [1, 8]: 14000 ng/mL | concentration at 1 h [1, 8]: 15400 ng/mL | concentration at 2 h [1, 8]: 6200 ng/mL | concentration at 4 h [1, 8]: 2200 ng/mL | concentration at 6 h [1, 8]: 800 ng/mL | concentration at 0.5 h [1, 9]: 6000 ng/mL | concentration at 1 h [1, 9]: 8600 ng/mL | concentration at 2 h [1, 9]: 2100 ng/mL | concentration at 4 h [1, 9]: 600 ng/mL | concentration at 0.5 h [1, 10]: 4800 ng/mL | concentration at 1 h [1, 10]: 5300 ng/mL | concentration at 2 h [1, 10]: 1200 ng/mL | concentration at 4 h [1, 10]: 200 ng/mL | concentration at 6 h [1, 10]: 200 ng/mL | Cmax ([1]; serum, rats, single oral 50 mg/kg, read-out: Peak serum level): 5300 ng/mL | MIC [2]: 0.78 µg/mL (≈ 1.76 µM) | MIC (Proteus vulgaris IFO3167): 1.56 µg/mL (≈ 3.53 µM) | MIC (P. mirabilis IID994): 1.56 µg/mL (≈ 3.53 µM) | MIC [3]: 0.1 µg/mL (≈ 0.226 µM) | MIC (S. pneumoniae IID552): 0.39 µg/mL (≈ 0.881 µM) | MIC [4]: 3.13 µg/mL (≈ 7.07 µM) | MIC [5]: 12.5 µg/mL (≈ 28.3 µM) | MIC [6]: 3.13 µg/mL (≈ 7.07 µM) | MIC (S. pyogenes S-8): 0.78 µg/mL (≈ 1.76 µM)
